From patent US7319147B2, “Porphyrins and related compounds” (Bioscience Technology Investment Holdings Limited, priority 2000, dated 2008)

What was measured:
[1] = Normal tissue damage / cutaneous photosensitivity by ear swelling after irradiation; assay type: in vivo, mice; conditions: 0.88 μmol/kg; same light dose 24 h after drug injection
Protocol: In a separate group of mice, the normal tissue damage was assessed by irradiating one ear with 40 Jcm^−2 of broad spectrum white light delivered using a fibre bundle from the xenon light source. The incident power at the ear surface was 638 mWcm^−2 and light was applied for 63 s. Animal ears were irradiated with light 24 h after administration of N-Me-NC-m-THPP. The opposing ear served as a control. The response was assessed twenty-four hours after irradiation by measuring the ear thickness at three sites on the upper third of the ear using a fixed-force micrometer with a vernier-interpolated resolution of 2 μm and an accuracy of 10 μm (Neill instruments).

[2] = test system: syngeneic colo26 tumour; conditions: m-THPP dose of 1.61 μmol/kg; light at 652 nm; Berenbaum et al. 1993; cited from earlier work

In the case of `Oc1cccc(-c2c3nc(c(-c4cccc(O)c4)c4ccc([nH]4)c(-c4cccc(O)c4)c4nc(c(-c5cccc(O)c5)c5ccc2[nH]5)CC4)C=C3)c1` [m-THPC, tetra(3-hydroxyphenyl)dihydroporphyrin], the “Ear Swelling (irradiated − control; μm)” value [1] was 41 μm.

For `Oc1cccc(-c2c3nc(c(-c4cccc(O)c4)c4ccc([nH]4)c(-c4cccc(O)c4)c4nc(c(-c5cccc(O)c5)c5ccc2[nH]5)C=C4)C=C3)c1` [m-THPP], the “tumour necrosis (literature)” value [2] is given as 0.14 mm.
